US6936607B2, “2,4,6-Triaminopyrimidines for the treatment of depression and/or anxiety” (H. Lunobeck A/S, priority 2002, dated 2005)

Target: T1, human GalR3 receptor (Homo sapiens, UniProt O60755)
T1 construct: expressed in transfected cells; host or cells: mouse fibroblast LM(tk-) cells, stably transfected; membranes
T1 sequence (O60755 1-368): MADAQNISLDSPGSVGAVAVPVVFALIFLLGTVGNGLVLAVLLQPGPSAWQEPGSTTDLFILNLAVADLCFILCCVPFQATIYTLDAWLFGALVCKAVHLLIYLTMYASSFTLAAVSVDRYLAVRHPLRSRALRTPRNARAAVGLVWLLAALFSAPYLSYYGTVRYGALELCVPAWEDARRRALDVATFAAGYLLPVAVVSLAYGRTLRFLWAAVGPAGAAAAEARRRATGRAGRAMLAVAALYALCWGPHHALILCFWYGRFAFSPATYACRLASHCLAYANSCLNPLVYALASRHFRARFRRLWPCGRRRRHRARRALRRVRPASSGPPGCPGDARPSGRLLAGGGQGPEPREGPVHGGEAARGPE
Test: Radioligand binding assay at cloned human GalR3 receptor
Details: Binding Data; membranes from LM(tk-) cells stably transfected with the human GalR3 receptor
Procedure: LM(tk-) cells were stably transfected with the human GalR3 receptor. cDNAs for the human and rat GalR3 receptors were transfected with a G-418 resistant gene into the mouse fibroblast LM(tk-) cell line by a calcium phosphate transfection method (Cullen, 1987). Membranes were harvested from stably transfected LM(tk-) cells. Adherent cells were washed twice in ice-cold phosphate buffered saline (138 mM NaCl, 8.1 mM Na2HPO4, 2.5 mM KCl, 1.2 mM KH2PO4, 0.9 mM CaCl2, 0.5 mM MgCl2, pH 7.4) and lysed by sonication in ice-cold sonication buffer (20 mM Tris-HCl, 5 mM EDTA, pH 7.7). Large particles and debris were cleared by low speed centrifugation (200×g, 5 min, 4° C.). Membranes were collected from the supernatant fraction by centrifugation (32,000×g, 18 min, 4° C.), washed with ice-cold hypotonic buffer, and collected again by centrifugation (32,000×g, 18 min, 4° C.). The final membrane pellet was resuspended by sonication into a small volume of ice-cold binding buffer (˜1 ml for every 5 plates: 10 mM NaCl, 20 mM HEPES, 0.22 mM KH2PO4, 1.26 mM CaCl2, 0.81 mM MgSO4, pH 7.4). Protein concentration was measured by the Bradford method (Bradford, 1976) using Bio-Rad Reagent, with bovine serum albumin as a standard. Membranes were held on ice for up to one hour and used fresh, or flash frozen and stored in liquid nitrogen. Membranes were prepared similarly from CHO cells. The methods to obtain the cDNA of the receptors, express said receptors in heterologous systems, and carry out assays to determine binding affinity are described as follows. Binding assays were performed according to the following published method: human GALR3 (PCT International Publication No. WO 02/060392).

| SMILES | Ki [nM] |
| --- | --- |
| COc1cccc(Nc2cc(N(C)C)nc(N3CCN(c4ccc(Cl)cc4)CC3)n2)c1 [Example 15, 2-[4-(4-CHLOROPHENYL)-1-PIPERAZINYL]-N^4-(3-METHOXYPHENYL)-N^6,N^6-DIMETHYL-4,6-PYRIMIDINEDIAMINE] | 88 |
| CN(C)c1cc(Nc2ccc3c(c2)CCC3)nc(N2CCN(c3ccccc3Cl)CC2)n1 [Example 4, 2-[4-(2-CHLOROPHENYL)-1-PIPERAZINYL]-N^4-(2,3-DIHYDRO-1H-INDEN-5-YL)-N^6,N^6-DIMETHYL-4,6-PYRIMIDINEDIAMINE] | 54 |
| CN(C)c1cc(Nc2ccc(SC(F)(F)F)c(Cl)c2)nc(N2CCN(c3cccc(Cl)c3)CC2)n1 [Example 20, 2-[4-(3-CHLOROPHENYL)-1-PIPERAZINYL]-N^4-{3-CHLORO-4-[(TRIFLUOROMETHYL) SULFANYL]PHENYL}-N^6,N^6-DIMETHYL-4,6-PYRIMIDINEDIAMINE] | 318 |
| CN(C)c1cc(Nc2ccc3c(c2)CCC3)nc(N2CCN(c3cccc(Cl)c3)CC2)n1 [Example 2, 2-[4-(3-CHLOROPHENYL)-1-PIPERAZINYL]-N^4-(2,3-DIHYDRO-1H-INDEN-5-YL)-N^6,N^6-DIMETHYL-4,6-PYRIMIDINEDIAMINE] | 34 |
| CN(C)c1cc(Nc2ccc(SC(F)(F)F)c(Cl)c2)nc(N2CCN(c3ccccc3F)CC2)n1 [Example 14, N^4-{3-CHLORO-4-[(TRIFLUOROMETHYL)SULFANYL]PHENYL}-2-[4-(2-FLUOROPHENYL)-1-PIPERAZINYL]-N^6,N^6-DIMETHYL-4,6-PYRIMIDINEDIAMINE] | 158 |
| Cc1ccc(Nc2cc(N(C)C)nc(N3CCN(c4ccc(Cl)cc4)CC3)n2)cc1C [Example 23, 2-[4-(4-CHLOROPHENYL)-1-PIPERAZINYL]-N^4-(3,4-DIMETHYLPHENYL)-N^6,N^6-DIMETHYL-4,6-PYRIMIDINEDIAMINE] | 129 |
| CN(C)c1cc(Nc2ccc3c(c2)CCC3)nc(N2CCN(c3ccc(Cl)cc3)CC2)n1 [Example 6, 2-[4-(4-CHLOROPHENYL)-1-PIPERAZINYL]-N^4-(2,3-DIHYDRO-1H-INDEN-5-YL)-N^6,N^6-DIMETHYL-4,6-PYRIMIDINEDIAMINE] | 52 |
| CN(C)c1cc(Nc2ccc(Cl)c(Cl)c2)nc(N2CCN(c3cccc(Cl)c3)CC2)n1 [Example 16, 2-[4-(3-CHLOROPHENYL)-1-PIPERAZINYL]-N^4-(3,4-DICHLOROPHENYL)-N^6,N^6-DIMETHYL-4,6-PYRIMIDINEDIAMINE] | 34 |
| CN(C)c1cc(Nc2ccc(C3CCCCC3)cc2)nc(N2CCN(c3cccc(Cl)c3)CC2)n1 [Example 9, 2-[4-(3-CHLOROPHENYL)-1-PIPERAZINYL]-N^4-(4-CYCLOHEXYLPHENYL)-N^6,N^6-DIMETHYL-4,6-PYRIMIDINEDIAMINE] | 241 |
| CN(C)c1cc(Nc2cccc(OCc3ccccc3)c2)nc(N2CCN(c3ccccc3Cl)CC2)n1 [Example 25, N^4-[3-(BENZYLOXY)PHENYL]-2-[4-(2-CHLOROPHENYL)-1-PIPERAZINYL]-N^6,N^6-DIMETHYL-4,6-PYRIMIDINEDIAMINE] | 16 |
| CN(C)c1cc(Nc2ccc(C3CCCCC3)cc2)nc(N2CCN(c3ccccc3F)CC2)n1 [Example 18, N^4-(4-CYCLOHEXYLPHENYL)-2-[4-(2-FLUOROPHENYL)-1-PIPERAZINYL]-N^6,N^6-DIMETHYL-4,6-PYRIMIDINEDIAMINE] | 46 |
| COc1cccc(Nc2cc(N(C)C)nc(N3CCN(c4ccccc4F)CC3)n2)c1 [Example 13, 2-[4-(2-FLUOROPHENYL)-1-PIPERAZINYL]-N^4-(3-METHOXYPHENYL)-N^6,N^6-DIMETHYL-4,6-PYRIMIDINEDIAMINE] | 93 |
| Cc1ccc(Nc2cc(N(C)C)nc(N3CCN(c4ccccc4F)CC3)n2)cc1 [Example 5, 2-[4-(2-FLUOROPHENYL)-1-PIPERAZINYL]-N^4,N^4-DIMETHYL-N^6-(4-METHYLPHENYL)-4,6-PYRIMIDINEDIAMINE] | 117 |
| CN(C)c1cc(Nc2cccc(OCc3ccccc3)c2)nc(N2CCN(c3ccccc3F)CC2)n1 [Example 24, N^4-[3-(BENZYLOXY)PHENYL]-2-[4-(2-FLUOROPHENYL)-1-PIPERAZINYL]-N^6,N^6-DIMETHYL-4,6-PYRIMIDINEDIAMINE] | 20 |
| CN(C)c1cc(Nc2ccc3c(c2)CCC3)nc(N2CCN(c3ccccc3F)CC2)n1 [Example 12, N^4-(2,3-DIHYDRO-1H-INDEN-5-YL)-2-[4-(2-FLUOROPHENYL)-1-PIPERAZINYL]-N^6,N^6-DIMETHYL-4,6-PYRIMIDINEDIAMINE] | 75 |

Now from value to compound:

| Ki [nM] | SMILES |
| --- | --- |
| 30 | C[C@H]1CN(c2nc(Nc3cccc(OCc4ccccc4)c3)cc(N(C)C)n2)C[C@H](C)O1 (racemic) [Example 48, (±)-N^4-[3-(BENZYLOXY)PHENYL]-2-(TRANS-2,6-DIMETHYL MORPHOLINYL)-N^6,N^6-DIMETHYL-4,6-PYRIMIDINEDIAMINE] |
| 246 | Cc1ccc(Nc2cc(N(C)C)nc(N3CCN(c4ccccn4)CC3)n2)cc1NC(C)C [Example 26, N^4-[3-(ISOPROPYLAMINO)-4-METHYLPHENYL]-N^6,N^6-DIMETHYL-2-[4-(2-PYRIDINYL)-1-PIPERAZINYL]-4,6-PYRIMIDINEDIAMINE] |
| 150 | CN(C)c1cc(Nc2ccc(Cl)c(Cl)c2)nc(N2CCN(c3ccc(Cl)cc3)CC2)n1 [Example 54, 2-[4-(4-CHLOROPHENYL)-1-PIPERAZINYL]-N-(3,4-DICHLOROPHENYL)-N^6,N^6-DIMETHYL-4,6-PYRIMIDINEDIAMINE] |
| 91 | CN(C)c1cc(Nc2cccc(OCc3ccccc3)c2)nc(N2CCc3ccccc32)n1 [Example 42, N^4-[3-(BENZYLOXY)PHENYL]-2-(2,3-DIHYDRO-1H-INDOL-1-YL)-N^6,N^6-DIMETHYL-4,6-PYRIMIDINEDIAMINE] |
| 264 | Cc1ccc(Nc2cc(N(C)C)nc(N3CCN(c4c(C(F)(F)F)ccc[n+]4[O-])CC3)n2)cc1 [Example 46, N^4,N^4-DIMETHYL-N^6-(4-METHYLPHENYL)-2-{4-[l-OXIDO-3-(TRIFLUOROMETHYL)-2-PYRIDINYL]-1-PIPERAZINYL}-4,6-PYRIMIDINEDIAMINE] |
| 60 | Clc1ccc(Nc2cc(N3CCN(c4ccccn4)CC3)nc(N3CCN(c4ccccn4)CC3)n2)cc1Cl [Example 43, N-(3,4-DICHLOROPHENYL)-2,6-BIS[4-(2-PYRIDINYL)-1-PIPERAZINYL]-4-PYRIMIDINAMINE] |
| 138 | CN(C)c1cc(Nc2ccc(SC(F)(F)F)c(Cl)c2)nc(N2CCN(c3ccc(Cl)cc3)CC2)n1 [Example 30, 2-[4-(4-CHLOROPHENYL)-1-PIPERAZINYL]-N^4-{3-CHLORO-4-[TRIFLUOROMETHYL) SULFANYL]PHENYL}-N^6,N^6-DIMETHYL-4,6-PYRIMIDINEDIAMINE] |
| 506 | Cc1ccc(Nc2cc(N(C)C)nc(N3CCN(c4ccccn4)CC3)n2)c(NC(C)C)c1 [Example 45, N^4-[2-(ISOPROPYLAMINO)-4-METHYLPHENYL]-N^6,N^6-DIMETHYL-2-[4-(2-PYRIDINYL)-1-PIPERAZINYL]-4,6-PYRIMIDINEDIAMINE] |
| 97 | Cc1ccc(Nc2cc(N(C)C)nc(N3CCN(c4cccc(Cl)c4)CC3)n2)cc1C [Example 32, 2-[4-(3-CHLOROPHENYL)-1-PIPERAZINYL]-N^4-(3,4-DIMETHYLPHENYL)-N^6,N^6-DIMETHYL-4,6-PYRIMIDINEDIAMINE] |
| 32 | C[C@@H]1CN(c2nc(Nc3cccc(OCc4ccccc4)c3)cc(N(C)C)n2)C[C@H](C)O1 [Example 34, N^4-[3-(BENZYLOXY)PHENYL]-2-[CIS-2,6-DIMETHYLMORPHOLINYL]-N^6,N^6-DIMETHYL-4,6-PYRIMIDINEDIAMINE] |
| 81 | C[C@@H]1CN(c2nc(Nc3ccc(Cl)c(Cl)c3)cc(N(C)C)n2)C[C@H](C)O1 [Example 51, N^4-(3,4-DICHLOROPHENYL)-2-(CIS-2,6-DIMETHYLMORPHOLINYL)-N^6,N^6-DIMETHYL-4,6-PYRIMIDINEDIAMINE] |
| 42 | CN(C)c1cc(Nc2cccc(OCc3ccccc3)c2)nc(N(C)CC2CCCO2)n1 (stereo not drawn) [Example 35, N^4-[3-(BENZYLOXY)PHENYL]-N^2,N^6,N^6-TRIMETHYL-N^2-(TETRAHYDRO-2-FURANYLMETHYL)-2,4,6-PYRIMIDINETRIAMINE] |
